Assay in all cases: NCI anticancer screen, dose series, 48 h
The test system of test [1] is 786-0.
The subject of test [2] is A549.
Test [3] relates to ACHN.
Test [4] relates to BT-549.
Test [5] has as its system DU-145.
Test [6] deals with EKVX.
Test [7] has as its system HCT-116.
Test [8] relates to K562.
The test system of test [9] is LOX IMVI.
Test [10] deals with MDA-MB-231.
The test system of test [11] is NCI-H226.
The subject of test [12] is NCI/ADR-RES.
The test system of test [13] is RPMI-8226.
Test [14] relates to SF-268.
For test [15], the system named is SK-MEL-2.
Test [16] deals with SK-OV-3.
In test [17] the test system is SNB-19.
Test [18] has as its system SNB-75.
Test [19] relates to SW-620.
The test system of test [20] is Malme-3M.

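96-well plates; 48 h exposure; 5 concentrations. Endpoints by linear interpolation between flanking doses. Not reached: highest tested concentration assigned. GI50 = concentration required for 50% inhibition of growth.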 Activity calls are given as the source filed them. Cut-off read from the data, not from the text of the source: active = GI50 up to about 1.1 µM and inactive = higher.

As to `COc1c2c(c3c(c1OC)c(=O)c1ccccc1n3C)OCO2`, the GI50 in test [1] was > 100 µM (inactive); in [2] it was > 100 µM (inactive); in test [3], > 100 µM (inactive); in test [4], > 100 µM (inactive); in test [5], > 100 µM (inactive); in test [6] it was 45.2 µM (inactive). Further, the GI50 in test [7] is > 100 µM (inactive); in [8] it was 81.5 µM (inactive); in test [9], > 100 µM (inactive); in test [10], > 100 µM (inactive); in test [11], > 100 µM (inactive); in test [12] it was > 100 µM (inactive). The GI50 in [13], in [14], in [15], in test [16], in [17] and in [18] was > 100 µM (inactive) in each case. For the same compound, the GI50 in [19] was > 100 µM (inactive).

Regarding `CCOC(=O)c1cc(-c2ccc([N+](=O)[O-])cc2)c([N+](=O)[O-])[nH]1`, the GI50 in test [1] is 3.52 µM (inactive); in [2] it was 2.88 µM (inactive); in test [3] it was 3.28 µM (inactive); in test [4], 3.4 µM (inactive); in [5], 2.96 µM (inactive); in [6] it was 2.51 µM (inactive). Moreover, the GI50 is 4.85 µM (inactive) in [7]; 3.48 µM (inactive) in [8]; 0.37 µM (active) in test [10]; > 10 µM (inactive) in [20]; 1.46 µM (inactive) in test [11]; 3.1 µM (inactive) in test [12]. For the same compound, the GI50 in test [14] is 4.53 µM (inactive); in [15], 2.72 µM (inactive); in [16] it was > 10 µM (inactive); in test [17], 2.91 µM (inactive); in test [18] it was > 10 µM (inactive).

For `COC(=O)c1c(OC(C)=O)ccc2c1c1c(OC(C)=O)c3ccccc3c(OC(C)=O)c1n2C`, the GI50 in test [1] is 26.4 µM (inactive); in [2], 29.9 µM (inactive); in test [3], 15.4 µM (inactive); in test [4], 21.8 µM (inactive); in [5], 19.9 µM (inactive); in test [6], 10.1 µM (inactive). In addition, the GI50 is 19.1 µM (inactive) in test [7]; 19.2 µM (inactive) in test [8]; 31.5 µM (inactive) in test [10]; 37.7 µM (inactive) in test [20]; 47.1 µM (inactive) in test [11]; 30.1 µM (inactive) in test [12]. The GI50 was 16.2 µM (inactive) in [13]; 22.6 µM (inactive) in test [14]; 17.3 µM (inactive) in test [15]; 16.1 µM (inactive) in [16]; 39.4 µM (inactive) in test [17]; 2.06 µM (inactive) in [18].

As to `COc1c(-c2nc3ccc(N4CCN(C)CC4)nc3[nH]2)cc(OC)c2[nH]c(COC(C)=O)nc12`, the GI50 in test [1] is 22.8 µM (inactive); in test [2], 39.5 µM (inactive); in test [3] it was 30.3 µM (inactive); in [4], 56.9 µM (inactive); in test [5] it was 29 µM (inactive); in test [6], 54.2 µM (inactive). Further, the GI50 was 20 µM (inactive) in test [7]; 1.52 µM (inactive) in test [8]; 25.9 µM (inactive) in test [9]; 17.9 µM (inactive) in test [10]; 28.1 µM (inactive) in test [20]; > 100 µM (inactive) in [12]. For the same compound, the GI50 is 61.8 µM (inactive) in test [14]; 19.5 µM (inactive) in test [15]; 14.5 µM (inactive) in test [16]; 28.1 µM (inactive) in [17]; 24.4 µM (inactive) in test [18]; 27.9 µM (inactive) in test [19].

As for `COC(=O)C1(O)C(c2ccccc2)NC2(C)CCCC21` (stereo not given), the GI50 in [1], in test [2], in test [3], in test [4], in [5] and in test [7] was > 100 µM (inactive) each time. Further, the GI50 in test [9], in test [10], in test [20], in [11], in [12] and in test [14] was > 100 µM (inactive) in each case. Besides, the GI50 in test [15], in [16], in [17], in [18] and in [19] was > 100 µM (inactive) in each case.

On to `CC1=CC(=O)/C(=C/N2CCNC2=S)C(=O)O1`, for which the GI50 in [1], in test [2], in test [3], in [4], in test [5] and in [6] was > 100 µM (inactive) throughout. Besides, the GI50 in test [7], in test [8], in test [9], in [10], in test [11] and in [12] was > 100 µM (inactive) each time. For the same compound, the GI50 in test [13] was > 100 µM (inactive); in [14], > 100 µM (inactive); in test [15], > 100 µM (inactive); in test [16] it was > 100 µM (inactive); in test [17], > 100 µM (inactive); in test [18] it was 89.7 µM (inactive). In test [19], the GI50 is > 100 µM (inactive).

As for `CCOc1cc(-c2nc3ccccn3c2/N=C/c2cc([N+](=O)[O-])cc([N+](=O)[O-])c2O)ccc1O`, the GI50 in [1], in test [2], in test [3], in test [4], in test [5] and in [6] was > 100 µM (inactive) in each case. For the same compound, the GI50 in test [7], in [8], in test [9], in test [10], in [20] and in test [12] was > 100 µM (inactive) in each case. Further, the GI50 in test [13] was > 100 µM (inactive); in test [14], > 100 µM (inactive); in test [15] it was > 100 µM (inactive); in [16] it was > 100 µM (inactive); in [17], > 100 µM (inactive); in [18], 88.1 µM (inactive). The GI50 in test [19] is > 100 µM (inactive).

As to `CCCCCC(=O)OCC1(CO)C/C(=C/CC(C(C)C)C(C)C)C(=O)O1` (stereo not given), the GI50 in test [1] is 30.8 µM (inactive); in test [2], 51.1 µM (inactive); in test [3], 58.5 µM (inactive); in [4], > 75 µM (inactive); in test [5] it was 59.6 µM (inactive); in test [6] it was > 75 µM (inactive). In addition, the GI50 is 27.7 µM (inactive) in test [7]; 10.6 µM (inactive) in test [9]; > 75 µM (inactive) in test [10]; 24.3 µM (inactive) in test [20]; > 75 µM (inactive) in test [11]; > 75 µM (inactive) in test [12]. Besides, the GI50 in test [14] is > 75 µM (inactive); in [15] it was > 75 µM (inactive); in test [16] it was > 75 µM (inactive); in test [17], 63.1 µM (inactive); in test [18], 74 µM (inactive); in [19] it was 25.2 µM (inactive).

On to `Cc1cccc2nc3cc(O)cc(O)c3c(O)c12`, for which the GI50 in [1], in test [2], in [3], in test [4], in test [5] and in test [7] was > 10 µM (inactive) in each case. Also, the GI50 in [8], in test [9], in test [10], in [20], in test [11] and in test [12] was > 10 µM (inactive) in each case. The GI50 is > 10 µM (inactive) in test [13]; > 10 µM (inactive) in [14]; > 10 µM (inactive) in test [15]; > 10 µM (inactive) in test [16]; > 10 µM (inactive) in test [17]; 4.54 µM (inactive) in [18]. The GI50 in test [19] is > 10 µM (inactive).

In the case of `C=C1C(=O)O[C@H]2[C@H]1CC(=O)/C(C)=C/CC[C@@]1(C)O[C@@H]21`, the GI50 was 0.582 µM (active) in test [1]; 12.7 µM (inactive) in [2]; 0.461 µM (active) in test [3]; 0.423 µM (active) in test [4]; 6.5 µM (inactive) in test [5]; 0.719 µM (active) in [7]. Further, the GI50 in test [9] was 0.354 µM (active); in test [10], 1.05 µM (active); in [20], 1.25 µM (inactive); in test [11], 4.26 µM (inactive); in [12], 1.4 µM (inactive); in test [14], 3.45 µM (inactive). The GI50 is 3.03 µM (inactive) in test [15]; 12.9 µM (inactive) in test [16]; 3.2 µM (inactive) in [17]; 16.7 µM (inactive) in test [18]; 0.324 µM (active) in test [19].

For the compound `Oc1c(Cl)c(Cl)c(Cl)c(Cl)c1Cl` [PENTACHLOROPHENOL], the GI50 in test [1] was 21 µM (inactive); in test [2], 23.1 µM (inactive); in test [3], 18.9 µM (inactive); in test [4] it was 25.6 µM (inactive); in test [5], 21.4 µM (inactive); in [6] it was 23.4 µM (inactive). The GI50 is 17.4 µM (inactive) in test [7]; 26.4 µM (inactive) in test [8]; 17.9 µM (inactive) in test [9]; 13.3 µM (inactive) in test [10]; 28.4 µM (inactive) in test [11]; 17.9 µM (inactive) in [12]. Further, the GI50 is 22.1 µM (inactive) in test [13]; 31.1 µM (inactive) in [14]; 16 µM (inactive) in test [15]; 45.6 µM (inactive) in test [16]; 30.3 µM (inactive) in test [17]; 22.9 µM (inactive) in test [18]. In addition, the GI50 in test [19] is 24.5 µM (inactive).

(Values after ChEMBL document CHEMBL1201862, “PubChem BioAssay data set” (2004).)
